From US3931147A, “Water-soluble derivatives of sodium mannoheptonate” (International Telephone and Telegraph Corporation, priority 1973, dated 1976)

Assay: Swelling of clay in water: viscosity and gel strength of sodium bentonite dispersion
Conditions: in words
Method: Additional tests were conducted to determine the utility of the metal complexes of the invention on the swelling of clay in water. 6 grams of the product were dissolved in 300 ml. of distilled water, and the pH of the solution was adjusted to 10.5 with sodium hydroxide. 30 grams of sodium bentonite were then added and the mixture was bottled and rolled 16 hours at 70°C. Viscosity and gel strengths were then determined using a Fann model 35 viscometer. Lowered viscosity and gels indicate decreased swelling and viscosity building.

Q: For aluminum, which “inhibiting the swelling of bentonite clays” value is on record?
A: most effective
